One data set relates to superoxide dismutase. In words: Superoxide dismutase enzyme activity assay in treated cells. Type of data set: cell-based. Particulars: determined indirectly. How it is done:
(§1) Antioxidant parameters were determined by glutathione peroxidase and superoxide dismutase enzyme activity assay and analysis of the MDA (malondialdehyde) levels. The cells which were subjected to the gel combination, to the active agent and only to the medium for control purposes in 6-well culture plates were collected and protein isolation was performed from the cell pellet by determined by measuring absorbance and drawing a standard curve at 595 nm wavelength with Bradford solution in 96-well ELISA plates by using bovine albumin protein standards (0.125, 0.25, 0.5, 0.75, 1.0, 1.5, 2.0 mg/ml). The enzyme activity assays and MDA levels were determined such that they wilt comply with the protocols given in commercials kits (FIG. 9).

Another data set has as its system glutathione peroxidase. In words: Glutathione peroxidase enzyme activity assay in treated cells. It is filed as cell-based. Particulars: in comparison to the control group. How it is done:
as §1

The test system of the next data set is Bax and p53 genes. In words: Real time PCR, apoptotic gene levels. It is filed as cell-based. Here is the method:
(§2) Real time PCR (Polymerase Chain Reaction) analyses were performed according to the literature by using SYBR Green method (Yalvac et al, 2010). The primers belonging to the collagen, fibronectin, laminin, Akt, Bax and P53 genes were designed using Primer BLAST software (The National Center for Biotechnology=NCBI). Total RNAs were isolated from the cells on which gel combination was applied and cDNA was synthesized. The synthesized cDNAs were mixed with primers in SYBR Green mix solution such that the final volume will be 20 μl and the expression levels of the genes (FIG. 8) were analyzed by using BIO-RAD device.
(In general: Quantitative PCR measures a nucleic acid by following its amplification.)

Another data set concerns malondialdehyde. The experiment in a line: Malondialdehyde (MDA) level in treated cells. Type of data set: cell-based. Conditions: in comparison to the control group. How it is done:
as §1

A further data set relates to Akt gene. In words: Real time PCR, Akt gene level. It is filed as cell-based. How it is done: as §2
The next data set has as its system HF (Human Fibroblast). The experiment in a line: In vitro wound healing scratch assay, human fibroblast cells. It is filed as cell-based. How it is done:
(§3) In order to determine the effect of the gel on wound healing, its capacity for cell migration and wound closure was analyzed by using the scratch assay described in the literature (Walter et al. 2010). […] The cells were seeded onto 12 well culture plates at a concentration of 100,000 cells/well, and by storing them in a carbon dioxide incubator so that they were enabled to attach and reach the sufficient density. Scratches were formed by using 200 μl pipette tip such that they will be perpendicular to the horizontal lines drawn by an acetate pen from the center of the wells to the outside of the wells. Gel combination was applied on the cells and scratch closure was observed. Setrach closure (FIG. 6-7) was analyzed by using NIH Image program upon photographing the regions of the straches which correspond to the lines drawn by an acetate pen and which are in the field of view of the microscope at 0, 12 and 24 hours.

A further data set has as its system L929-HUVEC co-culture. The experiment in a line: In vitro wound healing scratch assay, L929-HUVEC co-culture. Type of data set: cell-based. How it is done:
as §3

The next data set concerns L929 (Mouse Fibroblast). In words: In vitro wound healing scratch assay, L929 cells. It is filed as cell-based. How it is done:
as §3

sodium pentaborate pentahydrate: the “superoxide dismutase enzyme activity” value with superoxide dismutase is “high level of enzyme activity”. Besides, the “glutathione peroxidase enzyme activity” value with glutathione peroxidase is given as “substantial amount of enzyme activity”. Also, the “apoptotic gene levels (Bax, p53)” value in the data set on Bax and p53 genes is reported as “decreased”. In the data set on malondialdehyde, the malondialdehyde levels entry is listed as “low MDA levels”. The akt gene levels entry in the data set on Akt gene was “decreased”. For the same substance, the wound closure rate in the data set with HF (Human Fibroblast) (12 hours) is 58%; with HF (Human Fibroblast) (24 hours) it was 91%; in the data set on L929-HUVEC co-culture (12 hours), 59%; in the data set with L929-HUVEC co-culture (24 hours), 100%; with L929 (Mouse Fibroblast) (24 hours) it was 84%. Further, the wound closure with L929 (Mouse Fibroblast) (12 hours) was 71%. The karyotype result with human fibroblast cells is given as “maintained their normal karyotypes”.

Values taken from US9655990B2, “Polymer based hydrogel” (YEDITEPE UNIVERSITESI, priority 2013, dated 2017).
